SMILES strings stand for the structures.

The source of these data is patent US7572888B2, “Methods of assaying receptor activity and constructs useful in such methods” (Duke University, priority 1997, dated 2009).

The target of one assay is μ opioid receptor (μOR) (Mus musculus, UniProt P42866). To be noted: given before morphine, wild type and βarr2-KO mice (data not shown). As for the experimental part:
The “response” was defined by the animal either licking the fore- or hind-paws or flicking the hind-paws. […] To avoid tissue damage the animals were not exposed to the plate for more than 30 seconds. […] WT (n=6), heterozygotes (+/−, n=5) and KO (n=9) mice were analyzed together in the same experiment.
The degree of antinociception was determined by measuring latency of hot plate (56° C.) responses (FIG. 2). […] After 10 min., antinociception was assessed once more. […] Means±S.E.M. are shown.
After 30 minutes or 2 hours, wild-type mice were killed and blood was collected in vials containing sodium fluoride and potassium-oxalate.

The test system of another assay is dopamine receptor. Nature of the assay: Locomotor responses to dopamine receptor stimulation. The assay is classed as in vivo, mouse. The settings on record: data not shown. The source says: For example, locomotor responses to dopamine receptor stimulation by cocaine and apornorphine were not enhanced (data not shown). […] Other regulatory elements, such as GRKs or βarrestin-1, could compensate for the lack of βarrestin-2, or the receptors could vary in their requirement for βarrestin interaction for their regulation.

In a further assay the test system is μOR. To be noted: cited from earlier work.
The nature of assay [1]: Rectal body temperature after morphine. To be noted: after morphine treatment. The format is in vivo, mouse.
For the next assay, the target named is T1, μORs (Mus musculus, UniProt P42866).
T1 construct: from tissue; host or cells: crude membranes of mouse hypothalamus, brain stem and periaqueductal gray
T1 sequence (P42866 whole entry): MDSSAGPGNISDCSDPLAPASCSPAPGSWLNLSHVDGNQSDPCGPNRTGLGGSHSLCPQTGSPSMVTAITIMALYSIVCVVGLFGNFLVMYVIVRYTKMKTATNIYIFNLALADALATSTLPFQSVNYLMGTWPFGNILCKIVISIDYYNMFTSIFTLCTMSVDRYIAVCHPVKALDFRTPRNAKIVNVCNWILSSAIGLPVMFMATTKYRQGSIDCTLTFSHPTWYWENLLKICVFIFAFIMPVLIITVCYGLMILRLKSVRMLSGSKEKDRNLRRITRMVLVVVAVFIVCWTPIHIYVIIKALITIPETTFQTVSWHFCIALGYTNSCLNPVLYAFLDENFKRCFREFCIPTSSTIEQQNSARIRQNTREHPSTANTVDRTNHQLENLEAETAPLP
Briefly: Agonist-stimulated [35S]GTPγS binding to periaqueductal gray membranes. The assay is classed as biochemical. To be noted: PAG membranes, 50-10,000 nM, 2 hour, 30° C. A general note: Binding of GTPγS marks nucleotide exchange on a G protein.

Sequence of μ opioid receptor (μOR) (P42866 whole entry): as above

`Oc1ccc2c3c1O[C@H]1c4[nH]c5ccccc5c4C[C@@]4(O)[C@@H](C2)N(CC2CC2)CC[C@]314` [naltrindole]: the “inhibition of morphine analgesia” value on μ opioid receptor (μOR) is listed as “did not inhibit analgesia”.

Regarding `CN1CCc2cccc3c2[C@H]1Cc1ccc(O)c(O)c1-3` [apornorphine], the “locomotor responses in βarr2-KO vs wild type” value with dopamine receptor is “not enhanced”.

With `CN1CC[C@]23c4c5ccc(O)c4O[C@H]2[C@@H](O)C=C[C@H]3[C@H]1C5` [morphine], the “internalization of the μOR” value in the assay with μOR (transfected cells, rat μOR or mouse MOR1) is “fails to induce the internalization of the μOR”. For the same molecule, the “translocation of GFP-tagged βarrestin-2 to μOR” value with μOR (μOR overexpressed in cell culture, exposure to morphine) is on record as “fails to translocate”. For the same molecule, in assay [1], the “change in body temperature, βarr2-KO vs wild-type” value is given as “greater drop in body temperature”.

For `C[C@@H](NC(=O)[C@@H](N)Cc1ccc(O)cc1)C(=O)NCC(=O)N(C)[C@@H](Cc1ccccc1)C(=O)NCCO` [DAMGO, [D-Ala^2, MePhe^4, Gly^5-ol]enkephalin], on μORs, the “[35S]GTPγS binding in βarr2-KO membranes compared to wild-type” value was “stimulated more [^35S]GTPγS binding”.

With `Oc1ccc2c3c1O[C@H]1c4[nH]c5c(c4C[C@@]4(O)[C@@H](C2)N(CC2CC2)CC[C@]314)C[C@@]1(O)[C@H]2Cc3ccc(O)c4c3[C@@]1(CCN2CC1CC1)[C@H]5O4` [nor-binaltorphimine], the “inhibition of morphine analgesia” value against μ opioid receptor (μOR) is listed as “did not inhibit analgesia”.
